Laboratory results reported in paper PMC9704104, “Towards safer anti-inflammatory therapy: synthesis of new thymol–pyrazole hybrids as dual COX-2/5-LOX inhibitors” (Journal of Enzyme Inhibition and Medicinal Chemistry, 2022).
Values joined by “and” are separate entries in the source; they are usually repeats but may differ in a detail not shown here. Equal values may be shown once. “Also recorded” adds a separate entry of the source. Read-outs that look alike come from different tables or passages of the source. Marks after values point to notes of the source that are not given here.

Tests used:
[1] = test system: formalin-induced rat paw oedema; experiment: Formalin-induced paw oedema test (acute inflammation model); type: in vivo; conditions: for inhibition in vivo at 5 mg/kg: Rattus norvegicus; for % Relative potency (4h) celecoxib, Mean ± SD / % Relative potency (4h) celecoxib: relative to % inhibition of celecoxib at 4 h; for % Relative potency (4h) diclofenac, Mean ± SD / % Relative potency (4h) diclofenac: relative to % inhibition of diclofenac at 4 h; for % inhibition of paw oedema compared with reference drugs (in words): comparison with celecoxib or diclofenac sodium
Experimental: Animals Adult female albino rats weighing 150-250 g were used (Experimental Animal Centre in Alexandria University). All animals accessed to food and water ad libitum and were housed in 12 h dark/light cycle in a controlled condition at 23-250C. They were allowed to acclimatize for 1 week prior to experimentation. Procedures involving animals and their care were conducted in conformity with the Guide for the Care and Use of Laboratory Animals published by US National Institute of Health4 (NIH publication No. 83-23, revised) and following the ethical guidelines of Alexandria University on laboratory animals. In all tests, adequate considerations were adopted to reduce pain or discomfort of animals (Approved by AlexU-IACUC) 3. […]
Formalin-induced paw edema test (acute inflammation model):
A solution of freshly prepared formalin 5% was used as a phlogistic agent. A mark was made on the lateral malleolus of the rats’ paws delineating the injection sites. The initial volume of paw was measured by means of digital calibrated Vernier caliper .
After 45 minutes, 40 μl formalin were injected subcutaneously into the sub plantar tissue of the right hind paw of all groups under light ether anesthesia . An equal volume of saline was injected into the left hind paw and served as internal control for the degree of inflammation in the right hind paw. 5, 6 The volume of paw was measured in different treatment groups, 4 h following the formalin injection and the amount of increase in paw volume (edema volume) was calculated by subtracting the volumes before and 4 h after the injection of formalin. Edema was expressed as an increase in the volume of paw, and the percentage of edema inhibition (or percent protection against inflammation) for each rat and each group was calculated according to the following equation: […]
Where Vt is the mean volume of edema at specific time interval (4 h) and Vo is the mean volume of edema […]
Relative potency of the tested compounds was expressed as % inhibition of edema for the tested compounds

COX-1 = molecular target: T1, COX-1 (Ovis aries, UniProt P05979); experiment: In vitro COX-1 inhibitory assay (Cayman colorimetric COX (ovine) inhibitor screening assay kit); type: biochemical; conditions: mean of three replicates ± SD
T1 construct: purchased Cayman chemicals 560131
T1 sequence (P05979 25-600): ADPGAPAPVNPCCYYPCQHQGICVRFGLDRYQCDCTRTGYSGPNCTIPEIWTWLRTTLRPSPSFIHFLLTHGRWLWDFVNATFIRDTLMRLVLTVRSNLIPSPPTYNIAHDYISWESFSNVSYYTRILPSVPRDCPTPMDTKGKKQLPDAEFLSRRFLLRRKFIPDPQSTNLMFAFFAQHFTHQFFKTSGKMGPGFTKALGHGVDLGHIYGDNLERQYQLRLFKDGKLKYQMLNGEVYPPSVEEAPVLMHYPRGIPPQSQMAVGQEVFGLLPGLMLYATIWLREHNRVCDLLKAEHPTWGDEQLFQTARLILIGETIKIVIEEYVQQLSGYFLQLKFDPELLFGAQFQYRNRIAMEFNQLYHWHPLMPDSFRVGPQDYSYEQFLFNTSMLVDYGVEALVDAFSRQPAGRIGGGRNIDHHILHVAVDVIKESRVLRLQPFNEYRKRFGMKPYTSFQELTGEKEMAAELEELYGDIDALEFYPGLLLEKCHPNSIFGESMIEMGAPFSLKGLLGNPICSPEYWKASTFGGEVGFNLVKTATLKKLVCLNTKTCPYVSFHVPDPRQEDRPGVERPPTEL
Experimental: (Page: S20, Supplementary file).
Anti-inflammatory activity
In vitro COX-1 and COX-2 inhibitory assay […]
supplied by Cayman chemicals, Ann Arbor, MI, USA according to reported method 1. The colorimetric COX inhibitor screening assay utilizes the peroxidase component of cyclooxygenase. The peroxidase activity was assayed calorimetrically by monitoring the appearance of oxidized N,N,N',N'-tetramethyl-1,4-phenylenediamine (TMPD) at 590nm. The appearance of reagent was carried out following the instructions […]
The half- maximal inhibitor concentrations (IC50µM) were determined and the selectivity index (SI) values were calculated as IC50 (COX-1)/IC50 (COX-2).
1) Background wells- 160 µL of assay buffer and 10 µL of heme were added to background wells.
2) The 100% Initial activity wells- 150 µL of assay buffer, 10 µL of heme and 10 µL of enzyme (COX-1 or COX-2) were added.
3) Inhibitor well- 150 µL of assay buffer, 10 µL of heme and 10 µL of enzyme were added.
4) 10 µL of inhibitor (3 concentrations) in DMSO was added to the inhibitor wells to yield a final […]
5) 10 µL of solvent (DMSO) was added to the 100% Initial activity wells and background wells.
7) 20 µL of colorimetric substrate solution (TMPD) was added to all wells.
8) 20 µL of arachidonic acid was added to all wells to yield a final concentration of 100 µM.
10) The absorbance was measured at 590 nm using a plate reader.
The calculations were carried out in the following manner:
1) The average absorbance of all samples was determined.
2) The absorbance of background wells was subtracted from absorbance of the 100% Initial activity […]
3) Percent inhibition = (100% Initial activity – Inhibitor wells/ 100% Initial activity)∗ 100 […]
Place the 96-well plate on a shaker for at least five minutes. […]

5-LOX = experiment: In vitro 5-LOX inhibitory assay (Abnova 5-LOX inhibitor screening assay kit); type: biochemical
Text: The newly synthesised compounds were screened for their ability to inhibit 5-LOX enzymes. […] (Page: S21, Supplementary file). […]
In vitro LOX inhibitory assay
Inhibitor Screening Assay Kit detects and measures the hydroperoxides produced in the lipoxygenation reaction using a purified LOX. The detection reaction is equally sensitive to hydroperoxides at various positions within the fatty acid and will work with fatty acids of any carbon length. It is thus a general detection method for 5-LOX and can be used to screen libraries of compounds for those which inhibit 5 -LOX enzymes.
1) Blank Wells- add 100 µL of assay buffer to at least two wells.
2) Positive Control Wells- Lipoxygenase (15-LO standard) add 90 µL 15-LO and 10 µL of assay buffer […]
3) 100% Initial Activity Wells- add 90 µL 15-LO and 10 µL of solvent (DMSO) (the same solvent to dissolve the inhibitor) to two wells. The 100% initial activity wells should result in approximately 10 […]
4) Inhibitor Wells- add 90 µL of sample and I10 µL of inhibitor to two wells.
5) Initiate the reaction by adding 10 µL of substrate (either arachidonic acid or linoleic acid) to all the wells. Place the 96-well plate on a shaker for at least five minutes.
6) Add 100 µL of chromogen to each well to stop enzyme catalysis and develop the reaction. Cover with a plate cover and place the 96-well plate on a shaker for at least five minutes.
7) Remove the cover and read the absorbance at 490-500 nm using a plate reader.
Inhibitors were dissolved in DMSO. The inhibitors were added to the assay in a final volume of 10 µL before initiating with substrate. Three concentrations were prepared (25, 50 and 100 µM) to determine the concentration produced 50% enzyme inhibition.
2) The absorbance of blank wells was subtracted from absorbance of the 100% Initial activity and the […]

gastric mucosa = experiment: In vivo gastric ulcerogenic activity (gross examination of gastric mucosa); conditions: fasted rats, 60 mg/kg orally, six hours after treatment
Experimental: Compounds were evaluated for acute gastric ulcerogenic effect in adult female Wistar rats. Gross examination was performed for any evidence of hyperaemia, haemorrhage, definite haemorrhagic erosion, or ulcer according to reported procedures[49]^,[51]
Compounds were evaluated for acute gastric ulcerogenic effect in adult female Wistar rats. Rats (150–250 g)
were divided into groups of six rats each and test compounds, references or DMSO as control were
administered orally at a dose of 60 mg/kg body weight (three times the previously used dose). Six hours after
the treatment they were sacrificed under deep ether anesthesia and their stomachs were removed and opened
through greater curvature, washed under running water and fixed in saline solution. Gross examination was
performed for any evidence of hyperemia, hemorrhage, definite hemorrhagic erosion or ulcer 6, 7 (Approved
The degree of ulcerogenicity was determined by viewing the gastric epithelial ulceration using a 5x
magnifying lens and rated by ulcer score.
Ulcer score was used to grade the incidence and severity of the lesions such as:
1) Shedding of epithelium—10
2) Petechial and frank hemorrhages—20
4) More than two ulcers—40

[2] = po, 4 h, individual rats 1-3, 5 mg/kg orally, read-out: % Inhibition of oedema volume
[3] = individual rats 1-3, 5 mg/kg orally, 5 mg/kg

Row | SMILES | inhibition in vivo at 5 mg/kg [1, 2] | % Relative potency (4h) celecoxib, Mean ± SD ([1]; group mean ± SD) | % Relative potency (4h) celecoxib ([1]; individual rats 1-3) | % Relative potency (4h) diclofenac, Mean ± SD ([1]; group mean ± SD) | % Relative potency (4h) diclofenac ([1]; individual rats 1-3) | IC50 (COX-1) | IC50 (5-LOX) | Gross appearance of gastric mucosa (ulcerogenic potential) (gastric mucosa; 60 mg/kg) | % inhibition of paw oedema compared with reference drugs (in words) ([1]; 4 h, 5 mg/kg orally) | Volume of oedema (ml) 4h ([1]; 4 h after formalin, individual rats 1-3, 5 mg/kg orally, 5 mg/kg) | Volume of oedema (ml) 0 [1, 3] | Abs diff. ([1]; 4 h minus 0, individual rats 1-3, 5 mg/kg orally, 5 mg/kg) | inhibition in vivo at 5 mg/kg ([1]; po, 4 h, group mean ± SD, 5 mg/kg orally, read-out: % Inhibition of oedema volume, Mean ± SD) | Gross appearance of gastric mucosa (ulcerogenic potential) (gastric mucosa) | % Inhibition of oedema volume, Mean ± SD ([1]; 4 h, group mean ± SD, 5 mg/kg orally) | Abs diff., Mean ± SD ([1]; 4 h minus 0, group mean ± SD, 5 mg/kg orally) | inhibition in vivo at 5 mg/kg ([1]; po, 4 h, read-out: % Inhibition of oedema volume, 4 h, individual rats 1-3, 5 mg/kg orally) | inhibition in vivo at 5 mg/kg ([1]; po, 4 h, read-out: % Inhibition of oedema volume, Mean ± SD, 4 h, group mean ± SD, 5 mg/kg orally) | Volume of oedema (ml) 4h, Mean ± SD ([1]; po, 5 mg/kg, 4 h)
1 | Cc1ccc(C(C)C)c(O)c1C=NNC(=O)c1cc(-c2ccc(Br)cc2)n(-c2ccccc2)n1 [Compound 8e, 5-(4-Bromophenyl)-N'-(2-hydroxy-3-isopropyl-6-methylbenzylidene)-1-phenyl-1H-pyrazole-3-carbohydrazide] | 59.5% | 149.1 ± 20.95% | 169.20% and 127.40% and 150.70% | 103.8 ± 19.09% | 125.70% and 90.70% and 95.0% | 11.24 ± 0.075 µM | 2.56 ± 0.025 µM |  |  |  |  |  |  |  |  |  |  |  | 
2 | Cc1ccc(C(C)C)c(O)c1C=NNC(=O)c1cc(-c2ccccc2)n(-c2ccc(S(N)(=O)=O)cc2)n1 [Compound 8a, 4-(3-(2–(2-Hydroxy-3-isopropyl-6-methylbenzylidene)hydrazine-1-carbonyl)-5-phenyl-1H-pyrazol-1-yl)benzenesulfonamide] | 40.1% | 106.8 ± 12.02% | 114.10% and 92.90% and 113.30% | 74.10 ± 9.64% | 84.80% and 66.10% and 71.40% | 11.2 ± 0.15 µM | 1.96 ± 0.036 µM | variable degrees of hyperaemia; also recorded: Hyperemia without gross ulceration | slightly less % inhibition than that of Diclofenac sodium | 6.35 mL | 5.02 mL |  |  |  |  |  |  |  | 
3 | COc1ccc(-c2cc(C(=O)NN=Cc3c(C)ccc(C(C)C)c3O)nn2-c2ccccc2)cc1 [Compound 8f, 5-(4-Methoxyphenyl)-N'-(2-hydroxy-3-isopropyl-6-methylbenzylidene)-1-phenyl-1H-pyrazole-3-carbohydrazide] | 50.5% | 127.7 ± 14.41% | 143.60% and 115.50% and 124.0% | 89.03 ± 15.43% | 106.70% and 82.20% and 78.20% | 11.2 ± 0.57 µM | 2.91 ± 0.064 µM |  | slightly less % inhibition than that of Diclofenac sodium |  | 5.15 mL | 1.20 | 46.3 ± 3.67% |  |  |  |  |  | 
4 | Cc1ccc(-c2cc(C(F)(F)F)nn2-c2ccc(S(N)(=O)=O)cc2)cc1 [Celecoxib, reference compound] |  |  |  |  |  |  |  |  |  |  |  |  |  | no ulceration | 36.33 ± 2.05% | 1.38^a ± 0.06 | 35.2% | 36.4% | 5.69^a ± 0.02 ml
